According to US20210156865A1, “METHODS FOR ASSESSING EFFICACY OF MALT1 INHIBITORS USING AN NF-KB TRANSLOCATION ASSAY” (Janssen Pharmaceutica NV, priority 2019, published 2021):
Blank lines part the entries; values can stand above or below the compound they belong to.

Assays:
[1] = tested on: NF-κB (p105/p50) nuclear translocation in CD19-positive B (CLL) cells; assay: NF-κB nuclear translocation in B cells from CLL PBMCs, 30 min anti-IgM; type: cell-based, human; conditions: 6 hours compound, anti-IgM 30 minutes
Procedure: Alternatively, B cells can also be activated by beads coated with anti-IgM antibody. After the stimulation, PBMCs were fixed using CytoFix buffer and permeabilized using 0.1% Triton X-100 solution. Cells were then stained with anti-CD19 to label B (CLL) cells, Hoechst 33342 to label nuclei, and anti-p105/p50 to label NF-κB subunit. Samples were analyzed on ImageStreamX to evaluate NF-κB nuclear localization in the CD19-positive cells. […] Statistical significance was determined using Student's t-test in Microsoft Excel.

[2] = tested on: proteases, caspases, protein kinases, and G-protein-coupled receptors; assay: Binding inhibition panel at single dose; set-up: dose or concentration left out as unconfirmed
[3] = tested on: CD79b-mutant DLBCL and ibrutinib-resistant DLBCL cell lines; assay: Growth of DLBCL cell lines in vitro; type: cell-based; conditions: ibrutinib-resistant with BTK C481S or CARD11 mutations
Oral bioavailability = conditions: in vivo
[4] = tested on: NF-κB (p105/p50) nuclear translocation in CD4 and CD8 positive T cells; assay: NF-kB nuclear translocation in T cells from NHL peripheral whole blood; type: cell-based, human
Procedure: (§1) The solution was mixed by pipetting with a 1 mL pipette. The plates were incubated in a humidified incubator at 37° C. with 5% CO2 for an additional 6 hours.
The staining solution was prepared by diluting Hoechst 33342 (Thermo Scientific, cat. #62249) to 10 nM and the p50 antibody (Clone 2J10D7; Novus, cat. #NB100-56583C) at 50 μg/mL in FACS buffer. The cells were incubated in the staining solution for 30 minutes at room temperature in the dark. The cells were washed by centrifugation at 1350 rpm for 5 minutes at room temperature, the supernatants were discarded, and the pellets were reconstituted in FACS buffer. The wash step was repeated twice, and the cells were resuspended in PBS at a final concentration of 5-20×10^6 cell/mL in 25 μL of PBS.
The samples were imaged on an AMNIS® […]® X Mark II imaging flow cytometer (MilliporeSigma, Burlington, Mass.) immediately, using 60× magnification, and the data was analyzed in IDEAS software using an internalization module, e.g., to evaluate frequency of CD4+ and CD8+ T cells or CLL cells with nuclear enrichment of p50.
The next day, the mixture samples were treated with anti-CD3 and anti-CD28 stimulatory antibodies following a procedure as that described in Example 1. […] Samples were analyzed on ImageStreamX to evaluate NF-κB nuclear localization in the CD4 and the CD8 positive T cells.

[5] = tested on: purified T-cells and PBMCs from NHL patients; assay: Gene expression in T-cells and PBMCs purified from NHL blood without stimulation; type: cell-based, human; conditions: no stimulation, 24 hours
Procedure: Peripheral blood was collected from five NHL patients, and the peripheral blood was allowed to stand overnight. Then, the peripheral blood was treated for 24 hours with a MALT inhibitor or DMSO control. PBMCs were purified from the unstimulated blood using a ficoll density gradient and T-cells were purified using CD3 Beads (Miltenyi) using the manufacturers protocol. Purified cells were lysed in RLTplus (Qiagen) and RNA was extracted from the purified cells using an AllPrep kit (Qiagen). Gene expression was measured using 100 ng of RNA in the Pan-Cancer Immune Profiling kit (NanoString) according to the manufacturer's instructions. Gene expression signatures were compared between the MALT inhibitor treated and DMSO treated samples.

[6] = tested on: purified T-cells and PBMCs from NHL patients; assay: IL2 expression in purified T-cells and PBMCs from NHL patients; type: cell-based, human; conditions: T-cells and PBMC of NHL blood; 24 hours; CD3 and CD28 six hours
Procedure: The effect of a MALT inhibitor was analyzed utilizing gene expression signatures from purified T-cells and PBMCs from Non-Hodgkin's lymphoma patients. Peripheral blood was collected from five NHL patients, and the peripheral blood was allowed to stand overnight. Then, the peripheral blood was treated for 24 hours with a MALT inhibitor or DMSO control. The blood was then stimulated with monoclonal antibodies against CD3 and CD28 for six hours. Prior to stimulation and following stimulation, PBMC were purified from the treated blood using a ficoll density gradient and T-cells were purified using CD3 Beads (Miltenyi) using the manufacturers protocol. Purified cells were lysed in RLTplus (Qiagen) and RNA was extracted from the purified cells using an AllPrepkit (Qiagen). Gene expression was measured using 100 ng of RNA in the Pan-Cancer Immune Profiling kit (NanoString) according to the manufacturer's instructions.

[7] = tested on: NF-kB nuclear localization in B (CLL) cells; assay: NF-κB nuclear translocation in CLL B cells, overnight incubation, 6 h anti-IgM; type: cell-based, human; conditions: CLL PBMC; overnight compound; anti-IgM 6 hours
Procedure: Cells were then treated with anti-IgM or left untreated for 6 hours. After stimulation, PBMC were fixed using CytoFix buffer and permeabilized using 0.1% Triton X-100 solution. Cells were then stained with anti-CD19 to label B (CLL) cells, anti-CD4 and anti-CD8 to label T cells, Hoechst 33342 to label nuclei, and anti-p105/p50 to label NF-kB subunit. Samples were analyzed on ImageStreamX to evaluate NF-kB nuclear localization in B cells or T cells. […] Statistical significance was determined using Student's t-test in Microsoft Excel.

CD4+ and CD8+ T cells = assay: CD69 expression on T cells from peripheral whole blood, imaging flow cytometry; type: cell-based, human; conditions: 200 μM overnight, anti-CD3 and anti-CD28 6 hours
Procedure: as §1
The next day, blood was treated with anti-CD3 and anti-CD28 stimulatory antibodies for 6 hours as described in Example 1 or left untreated. After treatment with the stimulatory antibodies, the red blood cells were lysed using multi-species lysis buffer, and the white blood cells were stained with anti-CD4 and anti-CD8 antibodies to label T cells and an anti-CD69 antibody to measure early T cell activation. Frequency of CD69-positive T cells (CD4+ and CD8+) was measured by IFC.

[8] = tested on: CD79b and CARD11-mutant ABC-DLBCL xenograft models; assay: ABC-DLBCL xenograft models in vivo
[9] = tested on: peripheral blood of CLL patients; assay: Gene expression in whole blood of CLL patients (NanoString Pan-Cancer Immune Profiling); type: cell-based, human; conditions: 200 μM 24 hours, anti-CD3 and anti-CD28 four hours
Procedure: (§2) Peripheral blood was collected from three NHL and two CLL patients. […] Prior to stimulation and following stimulation, the treated blood was transferred into a PAXgene tube (Qiagen; Hilden, Germany) and RNA was extracted using the PAXgene RNA kit. Gene expression was measured using 100 ng of RNA extracted from the whole blood in the Pan-Cancer Immune Profiling kit (NanoString; Seattle, Wash.) according to the manufacturer's instructions.

[10] = tested on: peripheral blood of NHL patients; assay: Gene expression in whole blood of NHL patients (NanoString Pan-Cancer Immune Profiling); type: cell-based, human; conditions: 200 μM 24 hours, anti-CD3 and anti-CD28 four hours
Procedure: as §2

[11] = tested on: whole blood of NHL patients; assay: Gene expression signatures in NHL whole blood treated with lymphocyte-stimulating agents; type: cell-based, human; conditions: PMA-stimulated samples, 100 μM
Procedure: To obtain a robust gene signature of MALT1 inhibitor activity, whole blood of nine NHL patients which was stimulated with CD3/CD28, PMA/ionomycin, or PBS as a control was tested. Briefly, NHL donor blood was collected in 10 mL sodium heparin tubes and transported in refrigerated state (cold packs). […] Then, aliquots were stimulated with CD3 and CD28 antibodies (1 ug/ml each), PMA (20 ng/ml) and Ionomycin (1 μg/mL), or unstimulated (PBS) for four hours. Following stimulation, the treated blood was transferred into a PAXgene tube (Qiagen; Hilden, Germany) and RNA was extracted using the PAXgene RNA kit.
Gene expression was measured using 100 ng of RNA extracted from the whole blood in the Pan-Cancer Immune Profiling kit (NanoString; Seattle, Wash.) according to the manufacturer's instructions. Gene expression was normalized across samples using NanoString nSolver software. […] Briefly, log 2-scaled, normalized NanoString counts were fit to a linear model (which incorporated the patient of origin) and moderated t-statistics, along with the associated Benjamini-Hochberg (BH) corrected p-values, were computed by empirical Bayes moderation of the standard errors towards a common value.

[12] = tested on: NF-κB proteins (p50 and RelB) in CLL cells; conditions: CLL cells treated in vitro; cited from earlier work
[13] = tested on: NF-κB target genes (CCND2, BCL2A, CCL3, CCL4, RGS1, and TNF) in CLL cells; conditions: CLL cells treated in vitro; cited from earlier work

oral bioavailability (Oral bioavailability): orally bioavailable
IC50 ([4]; Homo sapiens, CD8 positive, overnight, CD3/CD28 stimulation 6 h, read-out: IC50, NFκB nuclear translocation in T cells): ~9.5 µM
Structure (SMILES): O=C(Nc1ccnc(C(F)(F)F)c1)c1cnn(-c2cccc3c(=O)[nH]ccc23)c1C(F)(F)F [Compound A, 1-(1-oxo-1,2 dihydroisoquinolin-5-yl)-5 (trifluoromethyl)-N-[2 (trifluoromethyl)pyridin-4 yl]-1H-pyrazole-4 carboxamide]
NF-κB nuclear translocation in activated B cells [1]: inhibited
binding inhibition of proteases, caspases, protein kinases, and G-protein-coupled receptors [2]: did not show significant binding inhibition
growth of DLBCL cell lines [3]: inhibit growth
NFκB nuclear translocation in T cells ([4]; CD3/CD28 stimulation, dosage dependent): completely blocked
APOE expression ([5]; purified PBMCs): repressed
PYCARD expression ([5]; purified PBMCs): repressed
NF-κB2 expression ([5]; purified T-cells): repressed
TNFSF10 expression ([5]; purified T-cells): repressed
stimulation induced upregulation of IL2 [6]: repressed
NF-κB nuclear translocation in B cells [7]: inhibited
surface expression of CD69 on T cells (CD4+ and CD8+ T cells; NHL blood): significantly inhibited
surface expression of CD69 on CD4+ and CD8+ T cells (CD4+ and CD8+ T cells; normal blood): not affected
efficacy in xenograft models [8]: shown efficacy
stimulation induced upregulation of CXCL10 [9]: repressed
stimulation induced upregulation of CXCL10 [10]: repressed
genes significantly upregulated [11]: no genes were significantly upregulated
gene expression at the specified cutoff levels ([11]; genes ICOS, POU2F2, CCR4, CTLA4): downregulated

Structure (SMILES): COCCOc1nc(-c2ccc(Cl)c(Cl)c2)n(-c2ccc(NC(=O)CCl)cc2)n1 [MI-2]
nuclear translocation of NF-κB proteins [12]: suppress
expression of six known NF-κB target genes [13]: significantly reduce
